In patent EP0321208A1, “Improvements in or relating to avian control” (priority 1987, dated 1989):

How the values were obtained:
quail chymotrypsin = experiment: ATEE assay: inhibition of quail intestinal chymotrypsin activity; type: biochemical, Japanese quail; settings: compound 1 x 10⁻⁵M; ATEE substrate; percentage inhibition of control activity ± standard deviation (n = 3); 5 min, 10 µM
Method: The substrate was prepared by dissolving ATEE (10 mg) in Tris-HCl buffer of pH 7.5 containing 30% (v/v) of methanol (25 ml). The quail intestine protease activity was partially purified as described above prior to testing for chymotrypsin activity. The reaction was carried out in a quartz cuvette (1 x 0.25 x 1 cm³) containing substrate (1 ml) and 100 mM Tris-HCl buffer (200 µl). The reaction was started by the addition of the partially purified intestine protease (200 µl) and followed bv the decrease in absorbance at 237 nm over a 5 minute period. All determinations were carried out in triplicate against a reagent blank.

bullfinch trypsin = experiment: BAEE assay: inhibition of bullfinch intestinal trypsin activity; type: biochemical; settings: compound 1 x 10⁻⁵M; BAEE substrate; percentage inhibition of control activity ± standard deviation (n = 3); 7 min, 10 µM
Method: (§1) Dried avian intestine powder (500 mg) was extracted for 30 minutes in 1 mM HC₁ (5 ml). The extract was centrifuged at 22,000 x g for 30 minutes at 4°C. The resultant supernatant was applied to a column of Sephadex G-50, medium grade (360 mm x 15 mm) and eluted with 0.5 mM HCl at 0.7 ml/min. Fractions (3.5 ml) were collected and tested for the presence of protein by determining their absorbance at 280 nm. The proteinaceous fractions were bulked and concentrated by passing them through an ultrafiltration unit (YM 30 filter). The concentrate was collected and kept at 4°C throughout its use.
The substrate was prepared bv dissolving BAEE (10 mg) in a mixture of 50 mM Tris-HCl buffer of pH 7.5 (24 ml) and 5% (w/v) calcium chloride solution (1 ml). The bullfinch intestine protease activity was partially purified as described above prior to testing for trypsin activity. The reaction was carried out in a quartz cuvette (1 x 0.25 x 1 cm³) containing substrate (1 ml) and 50 mM Tris-HCl buffer (200 µl). The reaction was started by the addition of the partially purified intestine protease 1200 µl) and followed by the decrease in absorbance at 253 nm over a 7 minute period. All determinations were carried out in triplicate against a reagent blank.
(§2) In both the chymotrypsin and the trypsin assays a control was however carried out using the 200 µl of buffer containing no added compound.

pigeon trypsin = experiment: TAME assay: inhibition of pigeon intestinal trypsin activity; type: biochemical; settings: for Inhibition of Activity: compound 60 µg/ml, TAME substrate, percentage inhibition of control activity ± standard deviation (n = 3), 5 min
Method: as §1
The substrate was prepared by dissolving TAME (19 mg) in a mixture of 100 mM Tris-HCl buffer of pH 7.5 (50 ml) and 5% (w/v) calcium chloride solution (2 ml). The pigeon intestine protease was partially purified as described above prior to testing for trypsin activity. The reaction was carried out in a quartz cuvette (1 x 0.25 x 1 cm³) containing substrate (3 ml) and 100 mM Tris-HCl buffer pH 7.5 (100 µl). The reaction was started by the addition of the partially purified intestine protease (100 µl) and followed by the decrease in absorbance at 247 nm over a 5 minute period.
as §2

feral pigeons [1] = experiment: Three day no-choice feeding test with feral pigeons; type: in vivo; settings: 0.5% w/w compound/pellet, ± standard deviation; for Mean weight difference: after the test compared with before; for Mean consumption: treated food
Method: (§3) Feral pigeons were transferred from a communal outdoor aviary to individual cages and maintained on a 10 hour light - 14 hour dark cycle. Birds were gradually weaned away from their normal diet of maize, wheat and maple peas to a standard laboratory diet of turkey starter pellets.
(§4) The pellets were oven dried and then left to absorb atmospheric moisture. The control food was sprayed with the same volume of acetone/water mixture.
(§5) A group of 35 feral pigeons was caged individually for the trials which used eight compounds of formula (I) together with sucrose octaacetate and dimethyl anthranilate, both of which are substances which are known to be avian repellents. Each bird was subjected to treatment with each compound in a random order subject to the limitation of a latin square design. Each treatment was presented to the birds in no-choice and two-choice conditions. The no-choice phase lasted 3 days, during which a bird was presented with a single bowl containing 120 g of treated food. Each bird was weighed before and after the no-choice phase, as was the amount of food remaining. There immediately followed a two-choice phase in which the birds could choose between food treated with a given chemical and a bowl containing otherwise identical pellets without the chemical (the control treatment utilising two bowls of acetone/water treated pellets, one of which was arbitrarily selected as the control). The two-choice phase lasted four days during which food consumption was monitored daily. The position of the food bowls was alternated each day in order to overcome the confusing of food preference with position preference and ample water and grit were supplied throughout the trial.

feral pigeons [2] = experiment: Four day two-choice feeding test with feral pigeons; type: in vivo; settings: for Mean consumption of treated food: four day two-choice, 0.5% w/w compound/pellet; for deterrent effect on food consumption: two-choice test, proportions of treated and untreated food consumed, statement in words
Method: as §3, §4, §5
The data obtained in the four day two-choice test is presented in Table 5 for mean consumption of treated food. […]

Japanese quail [3] = experiment: No choice feeding trial with Japanese quail; type: in vivo; settings: 5,000 ppm additive in turkey starter crumbs, 14 days, ± standard deviation
Description: (§6) (A) Six week old female japanese quail were preconditoned by weighing them seven days before the start of the feeding trial. Five quail were placed in each of four cages and each cage was provided with a different diet, these being (a) a control diet of standard turkey starter crumbs (TSC), (b) TSC treated with 5,000 ppm cinnamamide, (c) TSC treated with 5,000 ppm 4-hydroxy-3,5-dimethoxycinnamic acid, and (d) TSC treated with 2,500 ppm cinnamamide + 2,500 ppm 4-hydroxy-3,5-dimethoxycinnamic acid. The treated TSC was prepared in each case by dissolving/-suspending the compound or compounds in diethyl ether (1500 ml) and mixing this with TSC (2000 g) at 0.25% or 0.5% w/w concentration compound/TSC in an industrial food mixer for 1 hour to evaporate off the diethyl ether and produce a homogeneous mixture. The control was prepared by mixing TSC (2000 g) with diethyl ether for 1 hour in an industrial food mixer. The amount of each diet consumed and the weight gain of the birds was recorded on a daily basis for a period of 14 days. The trial was carried out in duplicate.
The results of the trial are presented in Table 2, together with the standard deviation. It will be seen that diets (b) and (d) produced a decreased increase in body weight as compared with the control diet (a). It should be appreciated that increased consumption, which apparently occurs with diets (c) and (d), can be the result of a compensation against the occurrence of the enzyme inhibitory effect and a consequent reduction in value of the food consumed.

Japanese quail [4] = experiment: Feeding trial with choice, Japanese quail; type: in vivo; settings: for Increase in body weight: value is for the birds offered both diets; for Average food eaten: treated diet eaten
Description: as §6
(B) In a variation of the treatment decribed in (A) four quail were placed in each of four cages and each cage was offered a choice between a control diet of TSC and TSC treated with one of (a) 5,000 ppm cinnamamide, (b) 2,500 ppm cinnamamide, (c) 1,000 ppm cinnamamide, and (d) 2,500 ppm cinnamamide + 2,500 ppm 4-hydroxy-3,5-dimethoxycinnamic acid. The various diets were prepared as described under (A).
The results of the trial are presented in Table 3, together with the standard deviation. It will be seen that in each case the birds consume less treated than untreated food and that although the weight gain was the least for the birds offered the control + 5,000 ppm cinnamamide diets, it was the 2,500 ppm cinnamamide + 2,500 ppm 4-hydroxy-3,5-dimethoxycinnamic acid diet which was least consumed.

[5] = choice between control diet and diet with 1,000 ppm additive
[6] = choice between control diet and diet with 2,500 ppm additive
[7] = choice between control diet and diet with 5,000 ppm additive

Row | SMILES | Inhibition of Activity Chymotrypsin (quail chymotrypsin) | Inhibition of Activity (pigeon trypsin) | Mean weight difference (feral pigeons [1]) | Mean consumption (feral pigeons [1]) | Mean consumption of treated food (feral pigeons [2]) | other results
1 | COc1cc(C=CC(=O)O)cc(OC)c1OC [3,4,5-Trimethoxycinnamic acid] | 88 ± 2 percentage | 0 percentage | -1.5 ± 0.9 grams | 53.0 ± 2.1 grams | 19.8 ± 2.7 grams | Inhibition of Activity Trypsin (bullfinch trypsin): 36 ± 1 percentage; deterrent effect on food consumption (feral pigeons [2]): most marked
2 | COc1ccc(C=CC(=O)O)cc1OC [3,4-Dimethoxycinnamic acid] | 83 ± 3 percentage | 16 ± 1 percentage | -1.1 ± 0.9 grams | 55.3 ± 2.3 grams | 27.1 ± 2.8 grams | –
3 | COc1cc(C=CC(=O)O)cc(OC)c1 [3,5-Dimethoxycinnamic acid] | 63 ± 1 percentage | 14 ± 1 percentage | -12.9 ± 1.2 grams | 33.1 ± 1.5 grams | 12.1 ± 1.7 grams | deterrent effect on food consumption (feral pigeons [2]): most marked
4 | O=C(C=Cc1ccc(O)c(O)c1)OC1CC(O)(C(=O)O)CC(O)C1O (stereo not shown) [3-(3',4'-Dihydroxycinnamoyl)-quinic acid] | – | 3 ± 1 percentage | – | – | – | –
5 | O=C(O)C=Cc1cccc(O)c1 [3-Hydroxycinnamic acid] | 43 ± 2 percentage | – | – | – | – | –
6 | COc1cccc(C=CC(=O)O)c1 [3-Methoxycinnamic acid] | 56 ± 4 percentage | – | – | – | – | –
7 | COc1cc(C(=O)O)cc(OC)c1O [4-Hydroxy-3,5-dimethoxy-benzoic acid, reference compound] | 2 ± 2 percentage | – | – | – | – | –
8 | COc1cc(C=CC(=O)O)cc(OC)c1O [4-Hydroxy-3,5-dimethoxy-cinnamic acid, 4-Hydroxy-3,5-dimethoxycinnamic acid] | 94 ± 2 percentage | 16 ± 4 percentage | 2.3 ± 0.9 grams | 60.2 ± 3.3 grams | 29.2 ± 2.8 grams | Inhibition of Activity Trypsin (bullfinch trypsin): 22 ± 2 percentage; Average food eaten (Japanese quail [3]): 21 ± 0.3 g/bird/day; Increase in body weight (Japanese quail [3]): 0.89 ± 0.10 g/bird/day
9 | COc1cc(C=CC(=O)O)ccc1O [4-Hydroxy-3-methoxycinnamic acid] | – | 16 ± 4 percentage | -0.2 ± 1.1 grams | 54.5 ± 2.9 grams | 22.7 ± 2.4 grams | –
10 | O=C(O)C=Cc1ccc(O)cc1 [4-Hydroxycinnamic acid, 4-hydroxycinnamic acid] | 12 ± 1 percentage | – | – | – | – | –
11 | O=C(O)c1ccccc1 [Benzoic acid, reference compound] | 14 ± 1 percentage | – | – | – | – | –
12 | O=CC=Cc1ccccc1 [Cinnamaldehyde] | 57 ± 4 percentage | – | – | – | – | –
13 | NC(=O)C=Cc1ccccc1 [Cinnamamide, cinnamamide] | 5 ± 1 percentage | 0 percentage | -16.2 ± 1.3 grams | 22.3 ± 2.7 grams | 6.0 ± 1.5 grams | Inhibition of Activity Trypsin (bullfinch trypsin): 64 ± 2 percentage; activity against pigeon intestinal trypsin (pigeon trypsin; statement in words): no activity was observed; Average food eaten (Japanese quail [3]): 17 ± 0.3 g/bird/day; Increase in body weight (Japanese quail [3]): 0.14 ± 0.04 g/bird/day; Increase in body weight (Japanese quail [4]; [5]): 1.29 ± 0.10 g/bird/day; Increase in body weight (Japanese quail [4]; [6]): 1.34 ± 0.20 g/bird/day; Increase in body weight (Japanese quail [4]; [7]): 0.66 ± 0.10 g/bird/day; deterrent effect on food consumption (Japanese quail [4]; quail, statement in words): a deterrent effect on food consumpton was noted; Average food eaten (Japanese quail [4]; [5]): 6 ± 0.2 g/bird/day; Average food eaten (Japanese quail [4]; [6]): 5 ± 0.4 g/bird/day; Average food eaten (Japanese quail [4]; [7]): 4 ± 0.2 g/bird/day; deterrent effect on food consumption (feral pigeons [2]): most marked
14 | N#CC=Cc1ccccc1 [Cinnamonitrile] | 23 ± 1 percentage | – | – | – | – | –
15 | OCC=Cc1ccccc1 [Cinnamyl alcohol] | 20 ± 6 percentage | – | – | – | – | –
16 | CNc1ccccc1C(=O)OC [Dimethylanthranilate, Dimethyl anthranilate, reference compound] | – | 9 ± 2 percentage | -4.8 ± 2.0 grams | 45.9 ± 2.9 grams | 18.2 ± 2.4 grams | –
17 | O=C(O)CCc1ccccc1 [Hydrocinnamic acid] | 19 ± 3 percentage | – | – | – | – | –
18 | O=C(O)Cc1ccccc1 [Phenylacetic acid, reference compound] | 13 ± 2 percentage | – | – | – | – | –
19 | CC(=O)OC[C@H]1O[C@@](COC(C)=O)(O[C@H]2O[C@H](COC(C)=O)[C@@H](OC(C)=O)[C@H](OC(C)=O)[C@H]2OC(C)=O)[C@@H](OC(C)=O)[C@@H]1OC(C)=O [Sucrose octaacetate, reference compound] | – | – | 2.3 ± 0.9 grams | 54.0 ± 2.6 grams | 28.6 ± 2.4 grams | –
20 | CC(C=O)=Cc1ccccc1 [α-Methylcinnamaldehyde] | 17 ± 5 percentage | – | – | – | – | –
21 | CC(=Cc1ccccc1)C(=O)O [α-Methylcinnamic acid] | 36 ± 3 percentage | – | – | – | – | –
